According to patent US20250179061A1 (SIRONAX LTD., priority 2022, published 2025):

tested on: HT-29 cells; assay: HT-29 necroptosis cell viability assay (TNF-α/SMAC mimetic/zVAD-FMK, CellTiter-Glo); assay type: cell-based; settings: Homo sapiens, HT-29, HT-29 necroptosis cell viability, IC50 class symbols; read-out: Activity
Method in brief: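 Necroptosis was triggered by TNF-α (10 ng/ml), SMAC mimetic (6 μM) and zVAD-FMK (10 μM) in serum-free medium during 20 h compound exposure (10 concentrations, threefold steps) of HT-29 cells. IC50 from duplicate dose-responses uses CellTiter-Glo ATP luminescence as viability read-out.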

| SMILES | IC50 [nM] |
| --- | --- |
| C[C@H]1C[C@@H](NC(=O)OC(C)(C)C)CN1c1cc(Oc2ccc(-n3ncn(Cc4c(F)cccc4F)c3=O)cc2F)ccn1 [Example 368, tert-butyl ((3R,5S)-1-(4-(4-(4-(2,6-difluorobenzyl)-5-oxo-4,5-dihydro-1H-1,2,4-triazol-1-yl)-2-fluorophenoxy)pyridin-2-yl)-5-methylpyrrolidin-3-yl)carbamate] | 100 to 1000 |
| C[C@H]1C[C@@H](N)CN1c1cc(Oc2ccc(-n3ncn(Cc4c(F)cccc4F)c3=O)cc2F)ccn1 [Example 369, 2-(4-((2-((2S,4R)-4-amino-2-methylpyrrolidin-1-yl)pyridin-4-yl)oxy)-3-fluorophenyl)-4-(2,6-difluorobenzyl)-2,4-dihydro-3H-1,2,4-triazol-3-one] | < 100 |
| CCOC1CN(c2cc(Oc3ccc(-n4ncn(Cc5c(F)cccc5F)c4=O)cc3F)c(C)cn2)C1 [Example 370, 4-(2,6-difluorobenzyl)-2-(4-((2-(3-ethoxyazetidin-1-yl)-5-methylpyridin-4-yl)oxy)-3-fluorophenyl)-2,4-dihydro-3H-1,2,4-triazol-3-one] | < 100 |
| CN(C)C1(C)CN(c2cc(Oc3ccc(-n4ncn(Cc5c(F)cccc5F)c4=O)cc3F)c(F)cn2)C1 [Example 371, 4-(2,6-difluorobenzyl)-2-(4-((2-(3-(dimethylamino)-3-methylazetidin-1-yl)-5-fluoropyridin-4-yl)oxy)-3-fluorophenyl)-2,4-dihydro-3H-1,2,4-triazol-3-one] | 100 to 1000 |
| CC(C)(C)OC(=O)NC(C)(C)C1CN(c2cc(Oc3ccc(-n4ncn(Cc5c(F)cccc5F)c4=O)cc3F)c(F)cn2)C1 [Example 372, tert-butyl (2-(1-(4-(4-(4-(2,6-difluorobenzyl)-5-oxo-4,5-dihydro-1H-1,2,4-triazol-1-yl)-2-fluorophenoxy)-5-fluoropyridin-2-yl)azetidin-3-yl)propan-2-yl)carbamate] | < 100 |
| CC(C)(C)OC(=O)NC[C@H]1CCN1c1cc(Oc2ccc(-n3ncn(Cc4c(F)cccc4F)c3=O)cc2F)c(F)cn1 [Example 373, tert-butyl (R)-((1-(4-(4-(4-(2,6-difluorobenzyl)-5-oxo-4,5-dihydro-1H-1,2,4-triazol-1-yl)-2-fluorophenoxy)-5-fluoropyridin-2-yl)azetidin-2-yl)methyl)carbamate] | < 100 |
| CC(C)(N)C1CN(c2cc(Oc3ccc(-n4ncn(Cc5c(F)cccc5F)c4=O)cc3F)c(F)cn2)C1 [Example 374, 2-(4-((2-(3-(2-aminopropan-2-yl)azetidin-1-yl)-5-fluoropyridin-4-yl)oxy)-3-fluorophenyl)-4-(2,6-difluorobenzyl)-2,4-dihydro-3H-1,2,4-triazol-3-one] | 100 to 1000 |
| NC[C@H]1CCN1c1cc(Oc2ccc(-n3ncn(Cc4c(F)cccc4F)c3=O)cc2F)c(F)cn1 [Example 375, (R)-2-(4-((2-(2-(aminomethyl)azetidin-1-yl)-5-fluoropyridin-4-yl)oxy)-3-fluorophenyl)-4-(2,6-difluorobenzyl)-2,4-dihydro-3H-1,2,4-triazol-3-one] | < 100 |
| C[C@H]1[C@H](NC(=O)OC(C)(C)C)CN1c1cc(Oc2ccc(-n3ncn(Cc4c(F)cccc4F)c3=O)cc2F)c(F)cn1 [Example 376, tert-butyl ((2S,3R)-1-(4-(4-(4-(2,6-difluorobenzyl)-5-oxo-4,5-dihydro-1H-1,2,4-triazol-1-yl)-2-fluorophenoxy)-5-fluoropyridin-2-yl)-2-methylazetidin-3-yl)carbamate] | < 100 |
| C[C@H]1[C@H](N)CN1c1cc(Oc2ccc(-n3ncn(Cc4c(F)cccc4F)c3=O)cc2F)c(F)cn1 [Example 377, 2-(4-((2-((2S,3R)-3-amino-2-methylazetidin-1-yl)-5-fluoropyridin-4-yl)oxy)-3-fluorophenyl)-4-(2,6-difluorobenzyl)-2,4-dihydro-3H-1,2,4-triazol-3-one] | < 100 |
| NC1(CO)CN(c2cc(Oc3ccc(-n4ncn(Cc5c(F)cccc5F)c4=O)cc3F)c(F)cn2)C1 [Example 378, 2-(4-((2-(3-amino-3-(hydroxymethyl)azetidin-1-yl)-5-fluoropyridin-4-yl)oxy)-3-fluorophenyl)-4-(2,6-difluorobenzyl)-2,4-dihydro-3H-1,2,4-triazol-3-one] | 100 to 1000 |
| O=c1n(Cc2c(F)cccc2F)cnn1-c1ccc(Oc2ccnc(N3CCC34CNC4)c2)cc1 [Example 379, 2-(4-((2-(1,6-diazaspiro[3.3]heptan-1-yl)pyridin-4-yl)oxy)phenyl)-4-(2,6-difluorobenzyl)-2,4-dihydro-3H-1,2,4-triazol-3-one] | 100 to 1000 |
| O=c1n(Cc2c(F)cccc2F)cnn1-c1ccc(Oc2ccnc(N3CC4(CCNCC4)C3)c2)cc1 [Example 380, 2-[4-[[2-(2,7-diazaspiro[3.5]nonan-2-yl)-4-pyridyl]oxy]phenyl]-4-[(2,6-difluorophenyl)methyl]-1,2,4-triazol-3-one] | 100 to 1000 |
| N#CC1(CNc2cc(Oc3ccc(-n4ncn(Cc5c(F)cccc5F)c4=O)cc3)ccn2)CC1 [Example 381, 1-(((4-(4-(4-(2,6-difluorobenzyl)-5-oxo-4,5-dihydro-1H-1,2,4-triazol-1-yl)phenoxy)pyridin-2-yl)amino)methyl)cyclopropane-1-carbonitrile] | < 100 |
| C[C@@H]1CN(c2cc(Oc3ccc(-n4ncn(Cc5c(F)cccc5F)c4=O)cc3)ccn2)C[C@H](C)O1 [Example 382, 4-(2,6-difluorobenzyl)-2-(4-((2-((2R,6S)-2,6-dimethylmorpholino)pyridin-4-yl)oxy)phenyl)-2,4-dihydro-3H-1,2,4-triazol-3-one] | 100 to 1000 |
| CC1(C#N)CN(c2cc(Oc3ccc(-n4ncn(Cc5c(F)cccc5F)c4=O)cc3)ccn2)C1 [Example 383, 1-(4-(4-(4-(2,6-difluorobenzyl)-5-oxo-4,5-dihydro-1H-1,2,4-triazol-1-yl)phenoxy)pyridin-2-yl)-3-methylazetidine-3-carbonitrile] | < 100 |
| N#CC1CCN(c2cc(Oc3ccc(-n4ncn(Cc5c(F)cccc5F)c4=O)cc3)ccn2)C1 (stereo not drawn) [Example 384, 1-(4-(4-(4-(2,6-difluorobenzyl)-5-oxo-4,5-dihydro-1H-1,2,4-triazol-1-yl)phenoxy)pyridin-2-yl)pyrrolidine-3-carbonitrile] | < 100 |
| CC(C)(C)CCNc1cc(Oc2ccc(-n3ncn(Cc4c(F)cccc4F)c3=O)cc2)ccn1 [Example 385, 4-(2,6-difluorobenzyl)-2-(4-((2-((3,3-dimethylbutyl)amino)pyridin-4-yl)oxy)phenyl)-2,4-dihydro-3H-1,2,4-triazol-3-one] | 1000 to 10000 |
| CC(C)(C)CNc1cc(Oc2ccc(-n3ncn(Cc4c(F)cccc4F)c3=O)cc2)ccn1 [Example 386, 4-(2,6-difluorobenzyl)-2-(4-((2-(neopentylamino)pyridin-4-yl)oxy)phenyl)-2,4-dihydro-3H-1,2,4-triazol-3-one] | < 100 |
| CC(C)(C)Nc1cc(Oc2ccc(-n3ncn(Cc4c(F)cccc4F)c3=O)cc2)ccn1 [Example 387, 2-(4-((2-(tert-butylamino)pyridin-4-yl)oxy)phenyl)-4-(2,6-difluorobenzyl)-2,4-dihydro-3H-1,2,4-triazol-3-one] | 100 to 1000 |
| CC(C)(C)Oc1cc(Oc2ccc(-n3ncn(Cc4c(F)cccc4F)c3=O)cc2)ccn1 [Example 388, 2-(4-((2-(tert-butoxy)pyridin-4-yl)oxy)phenyl)-4-(2,6-difluorobenzyl)-2,4-dihydro-3H-1,2,4-triazol-3-one] | 100 to 1000 |
